Measurements published in PMC7608815 (Science Advances, 2020).

What was measured:
SlMT3 = target: T1, SlMT3 (Solanum lycopersicum, UniProt D2Y3T9); assay: yeast feeding assay, qToF-MS of methylation product; type: cell-based; settings: 100 uM fed substrate plus endogenous yeast 3-HAA, 72 h, 30 C
T1 sequence (D2Y3T9 1-361): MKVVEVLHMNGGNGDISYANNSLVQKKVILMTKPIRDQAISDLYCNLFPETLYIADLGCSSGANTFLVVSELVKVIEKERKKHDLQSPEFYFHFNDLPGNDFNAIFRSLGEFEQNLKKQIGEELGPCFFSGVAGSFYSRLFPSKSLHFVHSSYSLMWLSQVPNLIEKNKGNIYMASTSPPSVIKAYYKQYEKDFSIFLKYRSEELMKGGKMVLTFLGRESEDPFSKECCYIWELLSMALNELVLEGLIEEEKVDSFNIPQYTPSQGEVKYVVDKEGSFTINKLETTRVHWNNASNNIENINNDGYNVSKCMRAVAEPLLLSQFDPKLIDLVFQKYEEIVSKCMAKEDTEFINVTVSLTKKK

AtCHS = target: T2, AtCHS (Arabidopsis thaliana, UniProt P13114); assay: LC-MS/MS product detection, end point […] h; type: biochemical; settings: 200 uM p-coumaroyl-CoA, 30 C
T2 sequence (P13114 2-395): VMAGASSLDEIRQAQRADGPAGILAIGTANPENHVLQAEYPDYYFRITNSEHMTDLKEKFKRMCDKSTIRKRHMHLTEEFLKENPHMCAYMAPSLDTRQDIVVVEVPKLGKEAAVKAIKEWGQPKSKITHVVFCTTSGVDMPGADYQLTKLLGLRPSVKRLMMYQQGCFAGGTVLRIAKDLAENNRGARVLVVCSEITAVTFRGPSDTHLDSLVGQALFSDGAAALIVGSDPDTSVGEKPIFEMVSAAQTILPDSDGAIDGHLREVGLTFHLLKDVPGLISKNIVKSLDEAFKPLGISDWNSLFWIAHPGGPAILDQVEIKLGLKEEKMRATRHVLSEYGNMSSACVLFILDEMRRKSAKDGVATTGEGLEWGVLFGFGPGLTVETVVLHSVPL

SMILES: Nc1c(O)cccc1C(=O)O [3-HAA]
- yeast feeding assay, qToF-MS of methylation product (SlMT3): SlMT3 exhibited detectable activity only toward 3-HAA

SMILES: COC(=O)c1cccc(O)c1N [compound 1, Methyl 2-amino-3-hydroxybenzoate]
- LC-MS/MS product detection, end point 4 h (AtCHS; 200 uM 3-HAA methyl ester, amide synthesis): highest production of amide with 3-HAA methyl ester

SMILES: CC(C)(COP(=O)(O)OP(=O)(O)OC[C@H]1O[C@@H](n2cnc3c(N)ncnc32)[C@H](O)[C@@H]1OP(=O)(O)O)[C@@H](O)C(=O)NCCC(=O)NCCSC(=O)CC(=O)O [malonyl-CoA]
- LC-MS/MS product detection, end point 4 h (AtCHS; 200 uM malonyl-CoA, naringenin chalcone synthesis): its activities on malonyl-CoA and 3-HAA methyl ester were analyzed under the same assay conditions
